Measured values taken from patent publication US20240293337A1, “USE OF DOXERCALCIFEROL TO TREAT AND/OR PREVENT UTERINE FIBROIDS OR POLYCYSTIC OVARY SYNDROME” (priority 2023, published 2024).

Legend:
[1] = test system: patient derived xenograft (PDX) mouse model of uterine fibroids (UF); assay: Differentially expressed gene (DEG) analysis by RNA sequencing in PDX UFs; format: in vivo, NOD/SCID mice; settings: UFs treated with doxercalciferol compared to control
Method: (§1) After xenograft mice undergo intraperitoneal injection of doxercalciferol (300 ng/kg, 3 times per week) or saline for 6 weeks. Body weight is monitored weekly during doxercalciferol treatment. Six weeks after doxercalciferol treatment insulin resistance is assessed using GTT and then mice are anesthetized and blood is collected to measure liver enzyme and AMH levels, ovary tissue is removed for histological analysis, total RNA is extracted for sequencing, and tumor size is measured with a digital caliper.
Total RNA is extracted from PDX mice after doxercalciferol treatment. EdgeR is used to identify DEGs with p-values of (p)<0.01). GO and KEGG enrichment analysis are performed to determine the implication of the DEGs at the biologically functional level.

[2] = test system: SW872 cells; assay: SW872 immortalized adipocyte model, cell morphology and cell number after 24 h treatment; format: cell-based, human; settings: 100 nM
Method: Human liposarcoma SW872 are used as an in vitro cell culture model of adipocytes to assess adipocyte proliferation. SW872 cells are purchased from (ATCC). These cells are isolated from a surgical specimen of a […] removed from a donor. The cells are cultured per the recommended guidelines. The cells are subcultured at a ratio of 1:4, resulting in a cell density of approximately 1×10^6 in T75 flasks. SW872 cells are subcultured in T75 flasks for 24 hours. Cells are then treated for 24 hours with serum free basal media as a control or doxercalciferol at 1 nM, 10 nM, or 100 nM diluted in basal media (serum-free). After the incubation period, cells are imaged and analyzed for morphology and cell count. Cells are then collected for analysis of adipogenesis-related gene expression and cell culture media are collected for analysis of obesity related cytokines.

[3] = test system: SW872 cells; assay: Adipogenesis gene expression in SW872 cells (qRT-PCR array); format: cell-based, human; settings: 10 nM, 24 hours
Method: SW872 cells are subcultured in T75 flasks for 24 hours. Cells are then treated for 24 hours with serum free basal media as a control or doxercalciferol at 1 nM, 10 nM, or 100 nM diluted in basal media (serum-free). After the incubation period, cells are imaged and analyzed for morphology and cell count. Cells are then collected for analysis of adipogenesis-related gene expression and cell culture media are collected for analysis of obesity related cytokines. RNA is extracted from SW872 cells treated with doxercalciferol. RNA extraction is done using TRIzol (Invitrogen, USA) according to the manufacturer's instructions. The concentration and purity of the extracted RNA is checked using a NanoDrop spectrometer (Thermo Scientific, MA, USA). Quantitative real-time PCR (qPCR) of adipogenesis related genes in SW872 cells is performed using a RT^2 Profiler™ PCR Array Human Apidogenesis according to the manufacturer's instructions (Qiagen, Sciences Inc., MD, USA).

[4] = test system: letrozole induced polycystic ovary syndrome (PCOS) mouse models; assay: Histology (H&E) of PCOS mouse tissues; format: in vivo, C57BL/6 mice; settings: after five weeks of treatment
Method: […] […] Each of these tissues are fixed in 4% paraformaldehyde for further histological analysis. Ovary, uterus, gonadal white fat, kidney, and liver tissue are collected and fixed in 4% paraformaldehyde. Tissue sections are stained with hematoxylin-eosin (H&E). Histological analyses are performed using Asperio ImageScope (Leica Biosystem, Wetzlar, Germany).

[5] = test system: letrozole induced polycystic ovary syndrome (PCOS) mouse models; assay: Glucose tolerance test in PCOS mice; format: in vivo, C57BL/6 mice; settings: 300 ng/kg i.p. 3 times per week, 120 minutes after IP glucose injection
Method: At 3.5 weeks of age, mice (n=11/group) are subcutaneously implanted with a placebo or 5 mg letrozole (LTZ) pellet (Innovative Research of America, Sarasota, FL, USA), which provides a constant release of LTZ (50 μg/day). Body weight is monitored weekly before and post-implantation. Body weight and insulin resistance (measured by glucose tolerance test, GTT) are used to monitor development of PCOS characteristics.
(§2) Five weeks after placebo or LTZ pellet implantation, mice undergo intraperitoneal injection of doxercalciferol (300 ng/kg) or saline 3 times per week for 6 weeks. Six weeks after doxercalciferol treatment, the mice are anesthetized and ovary, uterus, gonadal white fat, kidney, and liver tissue are collected. Each of these tissues are fixed in 4% paraformaldehyde for further histological analysis.
Glucose tolerance testing is performed on healthy, PCOS, and treated mice 3 weeks after doxercalciferol treatment. Mice are fasting for 16 h (5 p.m. to 9 a.m.), with free access to drinking water, after which they receive an intra-peritoneal (i.p.) injection of D-glucose (2.0 g/kg body weight). Blood glucose level is measured at 0, 15, 30, 60, 90, and 120 minutes following glucose injection using a Bayer glucose monitor (Roche Diagnostics Corp, IN, USA).

[6] = Body weight change in PDX UF mice; format: in vivo, NOD/SCID mice; settings: 300 ng/kg i.p. 3 times per week, 6 weeks
Method: as §1

[7] = Serum chemistry in PCOS mice; format: in vivo, C57BL/6 mice; settings: after five weeks of treatment, most of the serum levels
[8] = test system: letrozole induced polycystic ovary syndrome (PCOS) mouse models; assay: Breeding experiments in PCOS mice; format: in vivo, C57BL/6 mice
Method: as §2
After doxercalciferol treatment, 6 mice per group from the PCOS experiments are randomly selected for the breeding experiment. One male C57BL/6 breeder mouse is used for every two female mice. The male and female mice are caged together for 10 days. Mating is determined by the presence of sperm plug in the vagina. The pregnancy rate, required time for pregnancy, average number of pups, total live and dead pups, and mouse pup weight and growth rate at birth and days 5 and 10 postpartum are measured.

[9] = test system: ovary; assay: Ovarian follicle counts in PDX UF mice (H&E histology); format: in vivo, NOD/SCID mice; settings: vs untreated control
Method: as §1
Ovary tissue is collected and fixed in 4% paraformaldehyde. Tissue sections are stained with hematoxylin-eosin (H&E). Histological analyses are performed.

[10] = PCOS mice, 300 ng/kg i.p. 3 times per week for 6 weeks

With C=C1/C(=C\C=C2/CCC[C@]3(C)[C@@H]([C@H](C)/C=C/[C@H](C)C(C)C)CC[C@@H]23)C[C@@H](O)C[C@@H]1O [doxercalciferol] the “ADRA1B fold change (FC)” value [1] was −1.81, the “ARGI fold change (FC)” value [1] was −1.42 and the “DUSP1 fold change [FC]” value [1] was 1.05. The “IL24 fold change (FC)” value [1] was 1.55, the “number of DEGs” value ([1]; RNA sequencing) was 410 and the “number of down-regulated DEGs” value ([1]; RNA sequencing) was 252. For the same molecule, the “number of up-regulated DEGs” value ([1]; RNA sequencing) was 158, the cell morphology [2] was “most cells being dead” and the cell number ([2]; vs control) was “significant reduction in cells”. The “CEBP relative gene expression” value [3] was “significantly upregulated”, the “CEBPD relative gene expression” value [3] was “significantly upregulated” and the “PRDM16 relative gene expression” value [3] was “significantly downregulated”. For the same molecule, the “RXRA relative gene expression” value [3] was “significantly upregulated”, the “SREBF1 relative gene expression” value [3] was “significantly downregulated” and the “WNT1 relative gene expression” value [3] was “significantly downregulated”. For the same molecule, the “WNT10B relative gene expression” value [3] was “significantly downregulated”, the “expression of most adipogenesis genes” value ([3]; not significant for most genes) was “downregulated” and the “kidney and liver histology” value ([4]; PCOS mice) was “no significant evidence of tissue damage or inflammation”. For the same molecule, the “ovary histology (follicles)” value ([4]; PCOS mice, untreated PCOS mice have numerous cysts) was “good numbers of follicles”, the “gonad white fat histology, adipocyte size vs untreated PCOS mice” value [4] was “reduced adipocyte size” and the “uterus histology, vs untreated PCOS mice” value [4] was “improved uterine epithelial cell organization”. The “blood glucose levels, vs control mice” value [5] was “elevated levels compared to control mice”, the “blood glucose levels, vs untreated PCOS mice” value [5] was “significantly lower blood glucose levels” and the “decrease in body weight” value [6] was 24%. The “serum levels vs reference range of C57BL/6 mice” value [7] was “overlap with the reference range”, the “average number of live pups, vs control mice” value [8, 10] was “no significant difference” and the “average number of live pups, vs untreated PCOS” value [8, 10] was “increased the average number of live pups”. The “required time for pregnancy after introduction to a potential mate” value [8, 10] was “about 2 weeks”, the pregnancy rate ([8]; PCOS mice, 300 ng/kg i.p. 3 times per week for 6 weeks (PCOS 20%, control 83.3%)) was 50% and the “total number of live pups, vs untreated PCOS” value ([8]; PCOS mice, 300 ng/kg i.p. 3 times per week for 6 weeks, not to the levels of control mice) was “increases the total number of live pups”. For the same molecule, the “average weight of pups, vs control mice” value ([8]; pups of treated PCOS mice, 5 days postpartum) was “significantly lower”, the “average weight of pups, vs control and PCOS” value ([8]; pups of treated PCOS mice, 10 days postpartum) was “no significant difference” and the “average weight of pups, vs control mice” value ([8]; pups of treated PCOS mice, at birth) was “significantly lower”. For the same molecule, the “growth of pups, vs control and PCOS” value ([8]; pups of treated PCOS mice, at birth, 5 days and 10 days postpartum) was “no significant difference”, the “number of follicles at the primordial, primary, secondary, or preantral phases” value [9] was “does not significantly affect” and the “total number of follicles in the ovary” value [9] was “does not significantly affect”.
